Data from PubChem BioAssay (NCI).
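Step 1: Grow cells in 96-well plates. Step 2: Expose to compound for 48 hours at 5 concentrations. Step 3: Interpolate endpoints linearly; if unreached, use highest concentration. GI50 is the concentration that inhibits growth by half. The concentration for full growth arrest is given as TGI.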

Assays:
Experiment in all cases: DTP human tumour cell line panel, 48 h
[1] = tested on: SF-268 CNS
[2] = tested on: NCI-H460 lung
[3] = tested on: OVCAR-5 ovarian
[4] = tested on: NCI/ADR-RES ovarian
[5] = tested on: BT-549 breast
[6] = tested on: SW-620 colon
[7] = tested on: UACC-62 melanoma
[8] = tested on: CAKI-1 renal
[9] = tested on: HCT-15 colon
[10] = tested on: T-47D breast
[11] = tested on: UACC-257 melanoma
[12] = tested on: CCRF-CEM leukemia
[13] = tested on: ACHN renal
[14] = tested on: HL-60(TB) leukemia
[15] = tested on: MDA-MB-231 breast
[16] = tested on: MCF7 breast
[17] = tested on: MOLT-4 leukemia
[18] = tested on: KM12 colon
[19] = tested on: OVCAR-8 ovarian
[20] = tested on: A498 renal
[21] = tested on: SK-MEL-5 melanoma
[22] = tested on: HS 578T breast
[23] = tested on: DU-145 prostate
[24] = tested on: U251 CNS
[25] = tested on: UO-31 renal
[26] = tested on: OVCAR-4 ovarian
[27] = tested on: HCC-2998 colon

## COc1cc(OC)c(/C=C/S(=O)(=O)Cc2ccc(OC)c(NCC(=O)NO)c2)c(OC)c1
[1]
  GI50: 86.3 nM
  TGI: > 100000 nM
[2]
  GI50: 25.6 nM
  TGI: > 100000 nM
[3]
  GI50: 53.5 nM
  TGI: > 100000 nM
[4]
  GI50: < 10 nM
  TGI: > 100000 nM
[5]
  GI50: 22.1 nM
[6]
  GI50: 27.9 nM
  TGI: > 100000 nM
[7]
  GI50: < 10 nM
  TGI: > 100000 nM
[8]
  GI50: < 10 nM
  TGI: > 100000 nM
[9]
  GI50: 13.1 nM
  TGI: > 100000 nM
[10]
  GI50: 17800 nM
  TGI: > 100000 nM
[11]
  GI50: > 100000 nM
  TGI: > 100000 nM
[12]
  GI50: 41 nM
  TGI: > 100000 nM
[13]
  GI50: < 15.2 nM
  TGI: > 100000 nM
[14]
  GI50: 19.1 nM
  TGI: 59.3 nM
[15]
  GI50: 45.7 nM
  TGI: > 100000 nM
[16]
  GI50: 14.2 nM
  TGI: > 100000 nM
[17]
  GI50: 41.5 nM
  TGI: > 100000 nM
[18]
  GI50: 10.5 nM
  TGI: > 100000 nM
[19]
  GI50: 35.6 nM
  TGI: > 100000 nM
[20]
  GI50: < 10 nM
  TGI: 101 nM
[21]
  GI50: 18.5 nM
  TGI: 182 nM
[22]
  GI50: < 14.2 nM
  TGI: > 100000 nM
[23]
  GI50: 39.5 nM
  TGI: > 100000 nM
[24]
  GI50: 35.5 nM
  TGI: > 100000 nM
[25]
  GI50: 72.3 nM
  TGI: > 100000 nM
[26]
  GI50: 46100 nM
  TGI: > 100000 nM
[27]
  GI50: 34.6 nM
